One experiment deals with Recombinant human FGFR2 (Homo sapiens, UniProt P21802). The experiment in a line: Transcreener Kinase Assay of FGFR2. It is filed as biochemical. The following applies: read-out: FGFR2 (FP) IC50. As for the experimental part:
Transcreener Kinase Assay of FGFR2
• Compounds were solved in DMSO and were diluted with assay buffer to 5 folds of final concentration keeping the DMSO concentration at 5%. Further dilution are needed to make final concentrations are at 1, 0.33, 0.11, 0.037, 0.012, 0.004, 0.0014, 0.0005 μM; (the final concentration of DMSO is 1%). • Enzyme/Substrate stock Preparation: Recombinant human FGFR2 and Poly E4Y are both diluted in assay buffer. The final concentration is 0.3 ng/μL for FGFR2 and 62.5 ng/μL for Poly E4Y. The mixture is being kept in ice before use; • Prepare ATP Diluents, 10 mM ATP is diluted in assay buffer, the final concentration is 25 μM; • Prepare ADP Diluents: diluted ADP (500 μM) in assay buffer, the final concentration is 25 μM; • Prepare ATP standard curve stock as following:
• In a 96-well plate, Add 5 μL of compound or control. (positive control: 5 μL of 5% DMSO; negative control: 5 μL of 500 mM EDTA) into desired wells; • Add 10 μL of Enzyme/Substrate stock into each well; • Add 10 μL of ATP Diluents to initiate the enzyme reaction and votex the plate immediately on a plate shaker; • For the wells to make standard curve, add 5 μL of 5% DMSO, 10 μL of assay buffer and 10 μL of ATP standard curve stock. • Incubate the plate for 45 min at 28[…] on a plate shaker in a low speed.
• Detection Mix Preparation: The mixture is made by dilution with MilliQ water; as following: ADP Alexa633 tracer (1:100), ADP antibody (1:158), and stop & detect buffer (1:10); • Tracer Only control Preparation: The mixture is made by dilution with MilliQ water; as following: ADP Alexa633 tracer (1:100), and stop & detect buffer (1:10) • No Tracer control Preparation: stop & detect buffer is diluted with MilliQ water; by 10 fold. • Add 25 μL of detection mix, Tracer Only control and No Tracer control into corresponding wells, respectively; • Incubate at 28 °C for 1 h, on a plate shaker in a low speed; • Measure florescence polarization (FP) on TECAN F500. Excitation wavelength: 610 nm, Emission wavelength: 670 nm.
(§1) • [ADP] in Compound well represents the ADP concentration in compound well. • [ADP] in Positive control well represents the ADP concentration in 5% DMSO well • Conversion of mP value to ADP concentration is calculated based on the formula which determined by standard curve. And mP value is measured by following the instruction provided by BellBrook Labs. (www.bellbrooklabs.com). 6. IC50: calculated using XL-Fit 2.0 software.

The target in the next experiment is FGFR3 kinase (Homo sapiens, UniProt P22607). As to the kind of experiment: Z-Lyte Kinase Assay of FGFR3. The class given is biochemical. As for the experimental part: Z-Lyte Kinase Assay of FGFR3
The final concentrations are 1, 0.33, 0.11, 0.037, 0.012, 0.004, 0.0014, 0.00046 μM, and the final concentration of DMSO is 2%. • 3) Kinase/Peptide Mixture (P/K solution): Prepare Kinase/Peptide Mixture by diluting the kinase to 0.7 μg/ml and the Z-LYTE™ Tyr 4 peptide to 4 μM in 1.33× Kinase Buffer. Mix gently by pipetting. • 4) Phospho-peptide Solution (PP solution): Add 0.4 μl of Z-LYTE™ Tyr 4 Phospho-peptide to 99.6 μl of 1.33× Kinase Buffer. • 5) ATP Solution: Prepare ATP Solution by diluting the 10 mM of ATP in 1.33× Kinase Buffer to 300 uM. • 6) Development Solution: Dilute Development Reagent B with Development Buffer as 1:128.
Shake the plate for 30 Sec and centrifuge (1500 rpm, 1 min) • Seal the plate to protect from the light and incubate the plate for 1 hour at RT (25-30[…]) • 2) Development reaction • Add 5 μl of the Development solution to all wells • Shake the plate for 30 Sec and centrifuge (1500 rpm, 1 min) • Seal the plate to protect from the light and incubate the plate for 1 hour at RT (25-30[…]) • 3) Stop and read • Add 5 μl of the Stop reagent to all wells • Shake the plate for 30 Sec and centrifuge (1500 rpm, 1 min) • Measure the value of Coumarin (Ex400 nm, Em445 nm) and fluorescein (Ex400 nm, Em520 nm), respectively.
Inhibition rate(IR)=1−%Photest Cpd/%PhoC2
• determined with add-in software for Microsoft Excel, XLfit™ (version 2.0) from ID Business Solutions (Guildford, UK)

The next experiment deals with SNU-16. The experiment in a line: Cellular Proliferation Assay (Cell Counting Kit-8), SNU-16. The class given is cell-based. The following applies: Homo sapiens, SNU-16 cells, 72 hours. As for the experimental part:
(§2) Cellular Proliferation Assay
(§3) • KG-1 (ATCC Accession No. CCL-246), • SNU-16 (ATCC Accession No. CRL-5974), • RT-112 (ECACC Accession No. 85061106)
(§4) • FGFR related cancer cell proliferation is measured in 96-well plates using Cell Counting Kit-8 (Dojindo CK04-13). • Seed 30000 cells/well of KG1, 5000 cells/well of SNU16, and 1000 cells/well of RT112 in a volume of 100 μL/well in growth media. • After 24 hours, dilute the compound to 10, 3.3, 1.1, 0.37, 0.12, 0.04, 0.013, 0.004 μM, keeping the DMSO concentration at 5%. • Add 10 μL of 8-point compound series to the wells of culturing cells. • Incubate at 37° C. and 5% CO2 for 72 hours • Add 10 μL/well of CCkit8 and incubate at 37° C. and 5% CO2 for an hour • Detect the optical density of each well at 450 nm on Labsystems Multiskan K3.
(§5) • ODcompound well represents the optical density of cells treated with compound. • ODcell well represents the optical density of cells without compounds treatment. (only 0.5% DMSO) • ODcontrol well represents the optical density of culture media background
(§6) The concentration of compound providing 50% of proliferation inhibition was calculated using Excel Fit.
For orientation: Formazan colour is commonly taken as a measure of viable cells.

For the next experiment, the target named is Recombinant human FGFR1 (Homo sapiens, UniProt P11362). The experiment in a line: Transcreener Kinase Assay of FGFR1. The class given is biochemical. The following applies: read-out: FGFR1 (FP) IC50. As for the experimental part:
Transcreener Kinase Assay of FGFR1
Prepare Solution • Compounds were solved in DMSO and were diluted with assay buffer to 5 folds of final concentration keeping the DMSO concentration at 5%. Further dilution are needed to make final concentrations are at 1, 0.33, 0.11, 0.037, 0.012, 0.004, 0.0014, 0.0005 μM; (the final concentration of DMSO is 1%). • Enzyme/Substrate stock Preparation: Recombinant human FGFR1 and Poly E4Y are both diluted in assay buffer.
Enzymatic Reaction • In a 96-well plate, Add 5 μL of compound or control. (positive control: 5 μL of 5% DMSO; negative control: 5 μL of 500 mM EDTA) into desired wells; • Add 10 μL of Enzyme/Substrate stock into each well; • Add 10 μL of ATP Diluents to initiate the enzyme reaction and votex the plate immediately on a plate shaker; • For the wells to make standard curve, add 5 μL of 5% DMSO, 10 μL of assay buffer and 10 μL of ATP standard curve stock. • Incubate the plate for 45 min at 28[…] on a plate shaker in a low speed.
Excitation wavelength: 610 nm, Emission wavelength: 670 nm.
as §1

The next experiment deals with KG-1. As to the kind of experiment: Cellular Proliferation Assay (Cell Counting Kit-8), KG-1. The class given is cell-based. The following applies: Homo sapiens, KG1 cells, 72 hours. As for the experimental part: as §2, §3, §4, §5, §6

Molecules are shown by their SMILES.

The values that follow come from patent US20160052926A1, “NOVEL PYRIMIDINE AND PYRIDINE COMPOUNDS AND USAGE THEREOF” (HUTCHISON MEDIPHARMA LIMITED, priority 2013, published 2016).

Chain of Recombinant human FGFR2 (P21802 22-821): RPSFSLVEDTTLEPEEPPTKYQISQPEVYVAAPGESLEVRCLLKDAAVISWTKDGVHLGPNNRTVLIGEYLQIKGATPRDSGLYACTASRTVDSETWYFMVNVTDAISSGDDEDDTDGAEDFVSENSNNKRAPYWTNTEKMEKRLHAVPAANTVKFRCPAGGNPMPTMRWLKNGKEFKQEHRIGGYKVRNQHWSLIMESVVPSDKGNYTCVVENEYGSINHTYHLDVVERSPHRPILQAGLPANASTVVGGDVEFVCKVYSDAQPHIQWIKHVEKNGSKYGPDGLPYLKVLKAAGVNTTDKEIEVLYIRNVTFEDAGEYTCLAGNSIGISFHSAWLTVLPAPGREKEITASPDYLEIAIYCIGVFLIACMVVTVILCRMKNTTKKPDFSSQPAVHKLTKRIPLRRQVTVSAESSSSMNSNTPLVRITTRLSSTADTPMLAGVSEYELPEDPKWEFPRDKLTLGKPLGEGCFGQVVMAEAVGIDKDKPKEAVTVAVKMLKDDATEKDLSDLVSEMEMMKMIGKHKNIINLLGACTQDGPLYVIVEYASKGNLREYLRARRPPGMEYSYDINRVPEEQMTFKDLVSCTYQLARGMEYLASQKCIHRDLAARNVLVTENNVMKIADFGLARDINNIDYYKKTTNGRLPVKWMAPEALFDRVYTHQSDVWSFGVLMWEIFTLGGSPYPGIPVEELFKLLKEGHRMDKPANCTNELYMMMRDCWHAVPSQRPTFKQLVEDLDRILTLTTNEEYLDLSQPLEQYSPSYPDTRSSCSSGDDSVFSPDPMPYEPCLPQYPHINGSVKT
Chain of Recombinant human FGFR1 (P11362 22-822): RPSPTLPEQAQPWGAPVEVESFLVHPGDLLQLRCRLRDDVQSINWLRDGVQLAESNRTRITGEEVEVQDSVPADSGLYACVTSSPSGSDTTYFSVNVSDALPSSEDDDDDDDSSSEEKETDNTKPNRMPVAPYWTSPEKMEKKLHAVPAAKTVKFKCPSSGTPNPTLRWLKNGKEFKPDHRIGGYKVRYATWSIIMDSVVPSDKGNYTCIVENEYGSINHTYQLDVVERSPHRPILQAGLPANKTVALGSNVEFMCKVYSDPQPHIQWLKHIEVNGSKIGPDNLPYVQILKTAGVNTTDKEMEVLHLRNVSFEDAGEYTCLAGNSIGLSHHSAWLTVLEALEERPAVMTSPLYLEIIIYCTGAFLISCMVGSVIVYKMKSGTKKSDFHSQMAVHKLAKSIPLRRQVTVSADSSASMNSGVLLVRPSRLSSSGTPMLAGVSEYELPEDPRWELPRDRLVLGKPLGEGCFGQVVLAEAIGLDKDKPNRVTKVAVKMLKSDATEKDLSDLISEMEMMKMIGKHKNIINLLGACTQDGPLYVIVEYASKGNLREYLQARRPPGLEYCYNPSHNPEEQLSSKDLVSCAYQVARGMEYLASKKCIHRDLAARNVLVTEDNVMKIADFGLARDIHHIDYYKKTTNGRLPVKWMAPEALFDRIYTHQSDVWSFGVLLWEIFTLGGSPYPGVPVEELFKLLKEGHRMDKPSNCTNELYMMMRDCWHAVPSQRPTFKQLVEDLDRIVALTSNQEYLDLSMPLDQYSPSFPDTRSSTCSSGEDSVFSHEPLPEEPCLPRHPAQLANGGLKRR
Chain of FGFR3 kinase (P22607 23-806): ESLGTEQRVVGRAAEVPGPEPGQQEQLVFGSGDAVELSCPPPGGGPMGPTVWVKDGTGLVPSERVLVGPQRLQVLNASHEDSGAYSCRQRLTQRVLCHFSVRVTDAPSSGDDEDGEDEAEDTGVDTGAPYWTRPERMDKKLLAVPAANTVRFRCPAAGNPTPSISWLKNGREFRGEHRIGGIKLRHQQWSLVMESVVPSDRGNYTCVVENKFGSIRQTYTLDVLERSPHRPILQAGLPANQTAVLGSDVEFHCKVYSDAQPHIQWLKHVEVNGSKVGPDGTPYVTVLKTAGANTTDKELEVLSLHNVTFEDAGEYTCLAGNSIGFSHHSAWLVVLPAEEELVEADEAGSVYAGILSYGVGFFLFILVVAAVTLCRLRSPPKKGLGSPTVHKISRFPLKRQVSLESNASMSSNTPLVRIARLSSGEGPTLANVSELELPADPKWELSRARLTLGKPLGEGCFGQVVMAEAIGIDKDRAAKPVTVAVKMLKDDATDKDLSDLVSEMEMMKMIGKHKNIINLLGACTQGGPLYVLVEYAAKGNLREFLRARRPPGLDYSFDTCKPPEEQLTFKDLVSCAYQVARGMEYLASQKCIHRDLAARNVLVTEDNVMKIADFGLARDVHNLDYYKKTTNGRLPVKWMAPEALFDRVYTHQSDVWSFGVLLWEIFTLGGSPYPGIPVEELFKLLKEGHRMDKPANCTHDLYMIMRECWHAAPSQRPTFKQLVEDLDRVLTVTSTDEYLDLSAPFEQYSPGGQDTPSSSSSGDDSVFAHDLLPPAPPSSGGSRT

Turning to `CCN1CCN(c2ccc(Nc3ncc(CCc4cc(C(=O)NC)cc(OC)c4Cl)cn3)cc2)CC1` [Compound 56], the concentration for half-maximal inhibition (IC50) at Recombinant human FGFR2 worked out at 4 nM; against FGFR3 kinase it was 9 nM; in the experiment with SNU-16, 17 nM; at Recombinant human FGFR1, 4 nM; in the experiment with KG-1, 7 nM.
Turning to `CONC(=O)c1cc(CCc2cnc(Nc3ccc(OCCN4CCCC4)cc3)nc2)cc(OC)c1` [Compound 43], the IC50 at Recombinant human FGFR2 was 10 nM; against FGFR3 kinase, 48 nM; with SNU-16, 33 nM; on Recombinant human FGFR1, 16 nM; in the experiment on KG-1 it was 69 nM.
On to `CONC(=O)c1cc(CCc2cnc(Nc3ccn(C)n3)nc2)cc(OC)c1` [Compound 24], for which the half-inhibitory concentration (IC50) worked out at 27 nM at Recombinant human FGFR2; 94 nM against FGFR3 kinase; 151 nM in the experiment on SNU-16; 47 nM on Recombinant human FGFR1; 122 nM in the experiment on KG-1.
`CCN1CCN(c2cccc(Nc3ncc(CCc4cc(OC)cc(C(=O)NC)c4)cn3)c2)CC1` [Compound 9, 3-(2-(2-((3-(4-ethylpiperazin-1-yl)phenyl)amino)pyrimidin-5-yl)ethyl)-5-methoxy-N-methylbenzamide]: the IC50 at Recombinant human FGFR2 turned out to be 28 nM; at FGFR3 kinase, 64 nM; with SNU-16 it was 44 nM; on Recombinant human FGFR1 it was 38 nM; in the experiment with KG-1 it was 98 nM.
On to `CCN1CCN(c2ccc(Nc3ncc(CCc4cc(OC)cc(C(=O)NC5CC5)c4)cn3)cc2)CC1` [Compound 46], for which the 50% inhibitory concentration (IC50) was found to be 34 nM on Recombinant human FGFR2; 61 nM at FGFR3 kinase; 113 nM in the experiment with SNU-16; 132 nM on Recombinant human FGFR1; 59 nM with KG-1.
Consider `CCN1CCN(c2ccc(Nc3ncc(CCc4cc(C(=O)NC5CC5)cc(OC)c4F)cn3)cc2)CC1` [Compound 57], for which the half-inhibitory concentration (IC50) at Recombinant human FGFR2 worked out at 9 nM; at FGFR3 kinase, 14 nM; in the experiment with SNU-16 it was 32 nM; on Recombinant human FGFR1 it was 8 nM; in the experiment on KG-1 it was 16 nM.
With `CCN1CCN(c2ccc(Nc3ncc(CCc4cc(C(=O)NOC)cc(OC)c4Cl)cn3)cc2)CC1` [Compound 59], the IC50 amounted to 2 nM at Recombinant human FGFR2; 2 nM against FGFR3 kinase; 4 nM in the experiment with SNU-16; 3 nM at Recombinant human FGFR1; 2 nM in the experiment with KG-1.
Regarding `CONC(=O)c1cc(CCc2cnc(Nc3cccc(N4C[C@@H](C)N[C@@H](C)C4)c3)nc2)cc(OC)c1` [Compound 18], the IC50 on Recombinant human FGFR2 came to 6 nM; at FGFR3 kinase, 8 nM; in the experiment with SNU-16, 3 nM; on Recombinant human FGFR1 it was 12 nM; in the experiment with KG-1, 77 nM.
Turning to `CONC(=O)c1cc(CCc2cnc(Nc3ccc(N4CCN(CCO)CC4)cc3)nc2)cc(OC)c1` [Compound 19, 3-(2-(2-((4-(4-(2-hydroxyethyl)piperazin-1-yl)phenyl)amino)pyrimidin-5-yl)ethyl)-N,5-dimethoxybenzamide], the IC50 on Recombinant human FGFR2 stood at 5 nM; at FGFR3 kinase, 11 nM; in the experiment on SNU-16 it was 22 nM; on Recombinant human FGFR1, 5 nM; in the experiment with KG-1 it was 19 nM.
For `CONC(=O)c1cc(CCc2cnc(Nc3ccc(OC)cc3)nc2)cc(OC)c1` [Compound 106], the IC50 was 7 nM at Recombinant human FGFR2; 35 nM at FGFR3 kinase; 33 nM with SNU-16; 10 nM at Recombinant human FGFR1; 40 nM in the experiment with KG-1.
For `CNC(=O)c1cc(CCc2cnc(Nc3ccn(C)c(=O)c3)nc2)c(F)c(OC)c1` [Compound 93], the IC50 at Recombinant human FGFR2 came to 9 nM; on FGFR3 kinase it was 11 nM; with SNU-16 it was 47 nM; at Recombinant human FGFR1, 18 nM; in the experiment on KG-1 it was 125 nM.
Turning to `CCN1CCN(c2ccc(Nc3ccc(CCc4cc(OC)cc(C(=O)NOC)c4)cn3)cn2)CC1` [Compound 75], the IC50 on Recombinant human FGFR2 amounted to 33 nM; against FGFR3 kinase it was 61 nM; in the experiment on SNU-16, 94 nM; on Recombinant human FGFR1, 41 nM; in the experiment with KG-1, 123 nM.
For `CCN1CCN(c2cccc(Nc3ncc(CCc4cc(OC)cc(C(=O)NOC)c4)cn3)c2)CC1` [Compound 14, 3-(2-(2-((3-(4-ethylpiperazin-1-yl)phenyl)amino)pyrimidin-5-yl)ethyl)-N,5-dimethoxybenzamide], the IC50 at Recombinant human FGFR2 is 4 nM; on FGFR3 kinase it was 4 nM; with SNU-16, 7 nM; on Recombinant human FGFR1, 3 nM; in the experiment with KG-1 it was 9 nM.
In the case of `CCN1CCN(c2cc(F)cc(Nc3ncc(CCc4cc(OC)cc(C(=O)NOC)c4)cn3)c2)CC1` [Compound 77], the IC50 was determined as 3 nM on Recombinant human FGFR2; 4 nM against FGFR3 kinase; 12 nM with SNU-16; 5 nM on Recombinant human FGFR1; 11 nM with KG-1.
The corresponding values for `CCN1CCN(c2ccc(Nc3ncc(CCc4cc(OC)cc(C(=O)NOC)c4)cn3)cn2)CC1` [Compound 42] are 4 nM, 8 nM, 15 nM, 2 nM and 11 nM.

In general, IC50 refers to the concentration that inhibits the measured activity by half.
